The record followed here is ChEMBL document CHEMBL1132609, “Discovery of a novel class of selective non-peptide antagonists for the human neurokinin-3 receptor. 2. Identification of (S)-N-(1-phenylpropyl)-3-hydroxy-2-phenylquinoline-4-carboxamide (SB 223412)” (J Med Chem, 1999).

The Ki is the dissociation constant of the complex between target and ligand, obtained from inhibition or displacement. Usually Kb stands for the affinity of an antagonist, worked out from how it opposes an agonist. Higher therefore signals a less potent antagonist.

One test has as its target T1, Neuromedin-K receptor (Homo sapiens, UniProt P29371).
T1 sequence (P29371 whole entry): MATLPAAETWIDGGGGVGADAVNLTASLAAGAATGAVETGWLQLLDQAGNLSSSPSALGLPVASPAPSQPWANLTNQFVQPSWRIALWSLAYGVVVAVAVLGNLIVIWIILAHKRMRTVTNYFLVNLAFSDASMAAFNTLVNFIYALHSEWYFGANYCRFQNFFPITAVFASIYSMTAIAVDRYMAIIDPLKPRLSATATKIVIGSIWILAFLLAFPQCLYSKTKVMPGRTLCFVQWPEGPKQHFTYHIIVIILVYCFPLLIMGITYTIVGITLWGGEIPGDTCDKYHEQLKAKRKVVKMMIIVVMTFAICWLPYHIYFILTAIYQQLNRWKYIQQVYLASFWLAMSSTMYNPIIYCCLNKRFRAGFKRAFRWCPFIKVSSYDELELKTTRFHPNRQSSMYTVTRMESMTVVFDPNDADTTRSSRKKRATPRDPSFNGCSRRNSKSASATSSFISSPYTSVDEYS
Put plainly: Binding affinity towards cloned human Tachykinin receptor 3 (hNK-3) expressed in CHO cells using [125I][MePhe7]-NKB. In kind it is cell-based.

The next test addresses Substance-P receptor (Homo sapiens, UniProt P25103). Briefly: Binding affinity towards cloned human Tachykinin receptor 1 (hNK-1) expressed in CHO cells using [3H]substance P.
For another test, the target named is T2, Substance-K receptor (Homo sapiens, UniProt P21452).
T2 sequence (P21452 whole entry): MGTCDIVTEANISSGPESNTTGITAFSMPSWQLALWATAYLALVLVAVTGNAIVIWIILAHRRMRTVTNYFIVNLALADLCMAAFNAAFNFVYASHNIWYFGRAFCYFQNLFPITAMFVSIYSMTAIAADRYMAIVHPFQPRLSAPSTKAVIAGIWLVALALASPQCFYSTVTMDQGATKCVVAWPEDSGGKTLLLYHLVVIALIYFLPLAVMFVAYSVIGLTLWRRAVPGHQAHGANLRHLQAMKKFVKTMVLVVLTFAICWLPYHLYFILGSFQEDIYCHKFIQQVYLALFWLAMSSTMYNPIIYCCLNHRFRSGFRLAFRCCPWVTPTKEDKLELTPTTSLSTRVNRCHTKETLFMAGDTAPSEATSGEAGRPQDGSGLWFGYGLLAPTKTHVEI
Briefly: Binding affinity towards cloned human Tachykinin receptor 2 (hNK-2) expressed in CHO cells using [125I]NKA.

Test [1] has as its target Neuromedin-K receptor (Oryctolagus cuniculus). Briefly: In vitro functional activity as antagonism of senktide-induced contractions in RISM (Rabbit Isolated Iris Sphincter Muscle) containing NK-3 receptor.

Chain of Substance-P receptor (P25103 whole entry): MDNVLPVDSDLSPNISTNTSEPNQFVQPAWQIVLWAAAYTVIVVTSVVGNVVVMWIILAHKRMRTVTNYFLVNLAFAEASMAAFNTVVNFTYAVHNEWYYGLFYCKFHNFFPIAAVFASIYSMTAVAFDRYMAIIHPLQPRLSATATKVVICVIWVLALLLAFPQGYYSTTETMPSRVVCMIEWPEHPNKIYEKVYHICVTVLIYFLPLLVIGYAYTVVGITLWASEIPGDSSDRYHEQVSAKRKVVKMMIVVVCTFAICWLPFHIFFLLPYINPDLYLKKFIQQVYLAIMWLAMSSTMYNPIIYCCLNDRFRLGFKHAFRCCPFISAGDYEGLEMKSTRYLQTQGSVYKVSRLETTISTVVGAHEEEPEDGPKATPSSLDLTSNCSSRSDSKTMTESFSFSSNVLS

In turn, `CN(C)C(=O)C(NC(=O)c1cc(-c2ccccc2)nc2ccccc12)c1ccccc1` (stereo not drawn) gave a Ki at Neuromedin-K receptor of 0.488 µM.
As to `CCCC(NC(=O)c1cc(-c2ccccc2)nc2ccccc12)c1ccccc1` (stereo not drawn), the Ki at Neuromedin-K receptor came to 0.0472 µM.
On Neuromedin-K receptor, `O=C(NC1(c2ccccc2)CCCC1)c1cc(-c2ccccc2)nc2ccccc12` showed a Ki of 0.129 µM.
On the same count and under the same terms, then `CCCCC(NC(=O)c1cc(-c2ccccc2)nc2ccccc12)c1ccccc1` (stereo not drawn), with 0.146 µM; and `CCCCCCc1c(-c2ccccc2)nc2ccccc2c1C(=O)NC(CC)c1ccccc1` (stereo not drawn), with 0.0554 µM.
With `COCC(NC(=O)c1cc(-c2ccccc2)nc2ccccc12)c1ccccc1` (stereo not drawn), on Neuromedin-K receptor, the Ki worked out at 0.314 µM. Against the preceding compound, the Ki is about 5.7-fold higher.
For the compound `O=C(NC(Cc1ccccc1)c1ccccc1)c1cc(-c2ccccc2)nc2ccccc12` (stereo not drawn), the inhibitory constant (Ki) on Neuromedin-K receptor stood at 3.51 µM.
On the same count and under the same terms, to `CNC(=O)C(NC(=O)c1cc(-c2ccccc2)nc2ccccc12)c1ccccc1` (stereo not drawn) belongs 0.426 µM.
`CC[C@@H](NC(=O)c1c(C)c(-c2ccccc2)nc2ccccc12)c1ccccc1`: the results for the inhibitory constant (Ki) at Substance-P receptor and at Substance-K receptor were over 100 µM and 0.277 µM, respectively.
In turn, `CC[C@@H](NC(=O)c1c(Cl)c(-c2ccccc2)nc2ccccc12)c1ccccc1` registered a Ki at Neuromedin-K receptor of 0.0299 µM.
The same measure, in the same setting: then `CCC(NC(=O)c1c(-c2ccccc2)c(-c2ccccc2)nc2ccccc12)c1ccccc1` (stereo not drawn), with 0.0453 µM; and `CC[C@@H](NC(=O)c1c(OCC(=O)N(C)C)c(-c2ccccc2)nc2ccccc12)c1ccccc1`, with 0.0024 µM; and `CCCCCCCC(NC(=O)c1cc(-c2ccccc2)nc2ccccc12)c1ccccc1` (stereo not drawn), with 4.87 µM.
Consider `CCCCc1c(-c2ccccc2)nc2ccccc2c1C(=O)NC(CC)c1ccccc1` (stereo not drawn), for which the Ki on Neuromedin-K receptor is 0.0152 µM. This Ki is about 320-fold lower than that of the compound before.
Still for that read-out and setting: to `O=C(NC(c1ccccc1)c1ccccc1)c1cc(-c2ccccc2)nc2ccccc12` belongs 0.134 µM; to `CCCc1c(-c2ccccc2)nc2ccccc2c1C(=O)NC(CC)c1ccccc1` (stereo not drawn), 0.0137 µM.
`CCC(NC(=O)c1c(OCC(N)=O)c(-c2ccccc2)nc2ccccc12)c1ccccc1` (single isomer, unassigned) gave an inhibition constant (Ki) at Neuromedin-K receptor of 0.0063 µM. Against the preceding compound, the Ki is about 2.2-fold lower.
Same read-out and setting: then `CCC(NC(=O)c1c(NC(=O)CN(C)C)c(-c2ccccc2)nc2ccccc12)c1ccccc1` (single isomer, unassigned), with 0.0107 µM.
Same read-out and setting: then `CCC(NC(=O)c1c(OCCN2CCCC2)c(-c2ccccc2)nc2ccccc12)c1ccccc1` (single isomer, unassigned), with 0.0068 µM.
The same measure, in the same setting: then `CCC(NC(=O)c1c(OCCN)c(-c2ccccc2)nc2ccccc12)c1ccccc1` (single isomer, unassigned), with 0.0047 µM.
As to `CC[C@@H](NC(=O)c1c(OCC(=O)O)c(-c2ccccc2)nc2ccccc12)c1ccccc1`, the Ki is over 100 µM at Substance-P receptor and 0.214 µM on Substance-K receptor.
For `CC[C@@H](NC(=O)c1cc(-c2ccccc2)nc2ccccc12)c1ccccc1` the same measures were over 100 µM and 0.237 µM.
The compound `O=C(NC(CO)c1ccccc1)c1cc(-c2ccccc2)nc2ccccc12` (stereo not drawn) showed a Ki on Neuromedin-K receptor of 0.207 µM.
For the compound `CCC(NC(=O)c1c(OCCN(C)C)c(-c2ccccc2)nc2ccccc12)c1ccccc1` (single isomer, unassigned), the Ki at Neuromedin-K receptor is 0.0057 µM.
Compound `NC[C@@H](NC(=O)c1cc(-c2ccccc2)nc2ccccc12)c1ccccc1` displayed an inhibitory constant (Ki) at Neuromedin-K receptor of 1.14 µM.
On the same count and under the same terms, then `CCOC(=O)COc1c(-c2ccccc2)nc2ccccc2c1C(=O)NC(CC)c1ccccc1` (single isomer, unassigned), with 0.002 µM; and `CC(NC(=O)c1cc(-c2ccccc2)nc2ccccc12)c1ccccc1` (stereo not drawn), with 0.264 µM.
On to `CCC(NC(=O)c1c(OC)c(-c2ccccc2)nc2ccccc12)c1ccccc1` (single isomer, unassigned) [listing 1 of 2 here], for which the Kb in test [1] is 0.0018 µM.
`CC(C)C(NC(=O)c1cc(-c2ccccc2)nc2ccccc12)c1ccccc1` (stereo not drawn) gave a Ki at Neuromedin-K receptor of 0.0743 µM.
The same measure, in the same setting: then `O=C(NC(c1ccccc1)C(F)(F)F)c1cc(-c2ccccc2)nc2ccccc12` (stereo not drawn), with 0.454 µM.
Regarding `CC[C@@H](NC(=O)c1c(CN(C)C)c(-c2ccccc2)nc2ccccc12)c1ccccc1`, the Ki at Substance-P receptor is over 100 µM; on Neuromedin-K receptor, 0.0022 µM; on Substance-K receptor, 0.172 µM.
As for `CC[C@@H](NC(=O)c1c(F)c(-c2ccccc2)nc2ccccc12)c1ccccc1`, at Neuromedin-K receptor, the inhibition constant (Ki) came to 0.0303 µM.
Same read-out and setting: to `CCC(NC(=O)c1c(OCCCN(C)C)c(-c2ccccc2)nc2ccccc12)c1ccccc1` (single isomer, unassigned) belongs 0.0086 µM; to `O=C(N[C@H](C(=O)O)c1ccccc1)c1cc(-c2ccccc2)nc2ccccc12`, 1.65 µM.
On the same count and under the same terms, then `CC(C)(NC(=O)c1cc(-c2ccccc2)nc2ccccc12)c1ccccc1`, with 0.295 µM; and `CCC(NC(=O)c1c(NC(C)=O)c(-c2ccccc2)nc2ccccc12)c1ccccc1` (single isomer, unassigned), with 0.0159 µM.
As to `O=C(NC(CCO)c1ccccc1)c1cc(-c2ccccc2)nc2ccccc12` (stereo not drawn), the Ki on Neuromedin-K receptor came out at 0.382 µM.
Turning to `CC[C@@H](NC(=O)c1c(N)c(-c2ccccc2)nc2ccccc12)c1ccccc1`, the Ki on Substance-P receptor is over 100 µM; at Substance-K receptor, 0.111 µM.
For `CN(C)C[C@@H](NC(=O)c1cc(-c2ccccc2)nc2ccccc12)c1ccccc1`, the Ki on Neuromedin-K receptor came out at 1.07 µM.
In turn, `CC(=O)C(NC(=O)c1cc(-c2ccccc2)nc2ccccc12)c1ccccc1` (stereo not drawn) displayed an inhibition constant (Ki) on Neuromedin-K receptor of 0.0274 µM.
`COC(=O)CC(NC(=O)c1cc(-c2ccccc2)nc2ccccc12)c1ccccc1` (stereo not drawn) displayed a Ki on Neuromedin-K receptor of 0.973 µM.
Regarding `CCC(NC(=O)c1c(OC)c(-c2ccccc2)nc2ccccc12)c1ccccc1` (single isomer, unassigned) [listing 2 of 2 here], the Ki was over 100 µM at Substance-P receptor, 0.0018 µM on Neuromedin-K receptor and 0.329 µM on Substance-K receptor.
`NC(=O)C(NC(=O)c1cc(-c2ccccc2)nc2ccccc12)c1ccccc1` (stereo not drawn) had a Ki at Neuromedin-K receptor of 0.983 µM.
On the same count and under the same terms, then `CCC(NC(=O)c1c(Br)c(-c2ccccc2)nc2ccccc12)c1ccccc1` (single isomer, unassigned), with 0.0372 µM.
For the compound `CC[C@@H](NC(=O)c1c(OCCO)c(-c2ccccc2)nc2ccccc12)c1ccccc1`, the Ki is over 100 µM on Substance-P receptor, 0.0015 µM at Neuromedin-K receptor and 0.082 µM at Substance-K receptor.
As for `CCC(NC(=O)c1c(OC)c(-c2ccccc2)nc2ccccc12)c1ccccc1` (stereo not drawn), the Ki at Neuromedin-K receptor amounted to 0.0058 µM.
As to `CCc1c(-c2ccccc2)nc2ccccc2c1C(=O)N[C@H](CC)c1ccccc1`, the Ki on Substance-P receptor is over 100 µM; at Substance-K receptor it was 0.316 µM.
